What all share (type): biochemical
Experiment [1] addresses T1, ethylbenzene dehydrogenase (EbDH) (Aromatoleum aromaticum, UniProt Q5P5I0). In words: inhibition of ethylbenzene-dependent activity, dose response. The following applies: substrate ethylbenzene; preincubated with inhibitor.
The target in experiment [2] is T1, ethylbenzene dehydrogenase (EbDH). In words: inhibition of ethylbenzene-dependent activity. The following applies: substrate ethylbenzene.
Experiment [3] shares this target. Nature of the experiment: ethylbenzene hydroxylation activity assay. The following applies: native substrate; Km in text is cited from an earlier paper.

The source of these data is PMC3748812 (Angewandte Chemie (International ed. in English), 2013).

pIC50: −log10 of the molar value.

A word on the pIC50: it is the IC50 on a negative log10 scale, so that one unit is a factor of ten. Low readings indicate a high IC50, high ones a low IC50.

For `CCB1C=CC=CN1` [B-ethyl-1,2-azaborine], the pIC50 in experiment [1] is 4.00.

`CCN1BC=CC=C1` [N-ethyl-1,2-azaborine]: the pIC50 in experiment [1] is 5.55.

Regarding `CCn1ccnc1` [N-ethylimidazole], the pIC50 in experiment [2] was 2.66.

For the molecule `CCc1ccccc1` [ethylbenzene], the “ethylbenzene hydroxylation activity assay” value in experiment [3] is “Nonlinear plots of the remaining ethylbenzene-dependent activity of EbDH”.
